According to patent US12635689B2, “Antifungal compositions” (priority 2019, dated 2026):
≈ marks a conversion by molar mass, not a printed value. Entries after “also recorded” stand apart in the source; their conditions may differ.

Tests used:
[1] = tested on: Z. tritici mitochondria; format: cell-based, Zymoseptoria tritici
[2] = tested on: Z. tritici cells; format: cell-based, Zymoseptoria tritici
[3] = tested on: Z. tritici; test: Growth inhibition on agar plates supplemented with compound; format: cell-based, Zymoseptoria tritici
[4] = tested on: U. maydis; test: as above; format: cell-based, Ustilago maydis
[5] = tested on: Z. tritici; format: cell-based, Zymoseptoria tritici
[6] = tested on: U. maydis; test: Live/dead staining in liquid culture; format: cell-based, Ustilago maydis
[7] = tested on: Z. tritici plasma membrane; format: cell-based, Zymoseptoria tritici
[8] = tested on: U. maydis plasma membrane; test: Plasma membrane integrity with GFP-Sso1 marker (patches, photo-bleaching recovery); format: cell-based, Ustilago maydis
[9] = tested on: Z. tritici; test: Plasma membrane potential, DiBAC4(3) staining; format: cell-based, Zymoseptoria tritici; settings: high concentrations
Protocol: (§1) Drug-induced leakage of ions from the cell was then determined by visualizing alterations of the membrane potential in C12-G+-treated cells, using the voltage-sensitive fluorescent probe bis-(1,3-dibutylbarbituric acid) trimethine oxonol, DiBAC4(3), which only stains depolarised cells. […] Therefore, the effect on the plasma membrane is most likely not the primary MoA of C12-G+ in fungi.

[10] = tested on: U. maydis; test: Plasma membrane potential, DiBAC4(3) staining; format: cell-based, Ustilago maydis; settings: high concentrations
Protocol: as §1

[11] = tested on: Z. tritici mitochondria; format: cell-based, Zymoseptoria tritici; settings: for mitochondrial depolarisation / inhibition of mitochondrial respiration: Z. tritici
[12] = tested on: U. maydis mitochondria; test: Mitochondrial depolarisation, TMRM staining; format: cell-based, Ustilago maydis; settings: low amounts
[13] = tested on: cellular respiration; test: Cellular oxygen consumption in cell suspensions; format: cell-based, U. maydis
[14] = tested on: C109 human skin fibroblasts; test: Mitochondrial organization in human skin fibroblasts; format: cell-based
Protocol: The effects on mitochondria may account for the fungal specificity of C12-G+. To test this, mammalian skin C109 fibroblasts were treated with C12-G+ and monitored for its effect on mitochondrial shape and membrane potential.
Low toxicity to humans and in the environment is an important requirement for fungicides. The toxicity of C12-TPP+, C18-TMA+ and C18-DMS+ was therefore tested on C109 human skin fibroblasts. Mitochondrial organization and mitochondrial membrane potential were monitored after incubating with various concentrations of the compounds.

[15] = tested on: Daphnia magna; test: Daphnia magna 30 minute treatment, TMRM mitochondrial potential; format: in vivo; settings: 1 μg/ml for 30 minutes
Protocol: In addition, the toxicity of C12-G+, C18-TMA+ and C18-DMS+ on the water flea Daphnia magna was investigated. This freshwater crustacean is well-established as a reporter organism in toxicity tests. Firstly, Daphnia magna was treated with 1 μg/ml of C12-G+, C18-TMA+ and C18-DMS+ for 30 minutes, followed by visualization of the mitochondrial potential by TMRM.

[16] = tested on: Daphnia magna; test: Daphnia magna 24 h toxicity (motility, escape response as indicator of mortality); format: in vivo
Protocol: Next, water fleas were treated for 24 h with various concentrations of all three SACCs and their motility behaviour and “escape response” monitored as an indicator of mortality. […] Higher amounts of both C18 SACCs eventually killed Daphnia magna, with C18-TMA+ being 1.8-times more toxic than C18-DMS+.

[17] = tested on: Z. tritici cells; test: Programmed cell death, CaspACE FITC-VAD-FMK with propidium iodide co-staining; format: cell-based, Zymoseptoria tritici; settings: 24 h treatment
[18] = tested on: Z. tritici (strain IPO323); set-up: species or system Zymoseptoria tritici on wheat; settings: in vivo
[19] = tested on: M. oryzae (strain Guy11); format: in vivo, Magnaporthe oryzae on rice; settings: rice; for protection at high concentrations: M. oryzae, high concentrations (75 and 100 μg/ml); for disease symptom development: sprayed 24 h before M. oryzae, 4 days, concentration-dependent
[20] = tested on: rice leaves; test: Early plant defence response, diaminobenzidine (DAB) staining of H2O2; format: in vivo; settings: 150 μg/ml SACC (salicylic acid 15 mM), 6 h
[21] = tested on: wheat leaves; settings: in vivo
[22] = tested on: rice leaves; settings: in vivo
[23] = tested on: C109 human skin fibroblasts; test: Mitochondrial membrane potential in human skin fibroblasts
[24] = tested on: C. albicans; format: cell-based, Candida albicans
[25] = tested on: Candida glabrata; format: cell-based
[26] = tested on: Candida albicans mitochondria; format: cell-based
[27] = tested on: Candida glabrata mitochondria; format: cell-based
[28] = tested on: U. maydis; format: cell-based, Ustilago maydis
[29] = tested on: C. albicans; format: cell-based, Candida albicans; remark: listed apart in the source
[30] = tested on: C. glabrata; format: cell-based, Candida glabrata
[31] = tested on: Z. tritici cells; test: Programmed cell death, Annexin-V-fluorescein staining; format: cell-based, Zymoseptoria tritici

## CCCCCCCCCCCC[S+](C)C [C12-DMS+, dodecyldimethylsulfonium]
[1]
  EC50 on Z. tritici (mitochondrial fragmentation): 7.39 µg/mL
[2]
  mROS levels: did not increase mROS levels

## CCCCCCCCCCCCNC(=N)N [C12-G+, dodecylguanidinium]
[3]
  Z. tritici more sensitive than U. maydis (growth inhibition): ~4 times
[3]; Z. tritici
  EC50, concentration at 50% inhibition of growth: 0.6 µg/mL
[4]
  EC50, concentration at 50% inhibition of growth: 2.3 µg/mL
[5]; 30-45 minutes incubation, up to 100 μg/ml
  cell viability: most cells were still alive
[5]; after 1 h at 100 μg/ml
  cells killed: > 80%
[6]; 30-45 minutes incubation, up to 50 μg/ml
  cell viability: most cells were still alive
[6]; after 1 h at 100 μg/ml
  killing: ~15%
[7]; Z. tritici
  EC50, effect on fungal plasma membrane: 20 to 50 µg/mL
  lateral mobility of GFP-Sso1: this effect was not observed
[7]; at 50 μg/ml
  Z. tritici less sensitive than U. maydis (GFP-Sso1 patches): ~2 times
[7]; high concentrations, Z. tritici
  formation of GFP-Sso1 patches at the cell periphery: induced the formation of GFP-Sso1
[8]; high concentrations
  formation of GFP-Sso1 patches at the cell periphery: induced the formation of GFP-Sso1
[8]; ≥10 μg/ml
  lateral mobility of GFP-Sso1: significantly reduced the mobility of GFP-Sso1
[9]
  number of depolarised cells (DiBAC4(3)): had only little effect
[10]
  number of depolarised cells (DiBAC4(3)): increased the number of depolarised cells
[1]
  EC50 on Z. tritici (mitochondrial fragmentation): 6.63 µg/mL (≈ 29.2 µM)
[11]
  Z. tritici more sensitive than U. maydis (mitochondrial membrane potential): ~4 times
[12]
  mitochondrial depolarisation (TMRM): depolarised mitochondria
[13]
  cellular oxygen consumption: inhibits cellular respiration
[14]; beyond 20 μg/ml
  effect on mitochondrial organization: caused organelle fragmentation and swollen cristae
[14]; concentrations up to 20 μg/ml
  effect on mitochondrial organization: little effect on mitochondrial organization
[15]
  mitochondrial potential (TMRM) in Daphnia magna: lost most signal
  motility of Daphnia magna: did not affect the motility
[16]
  concentration that killed all Daphnia magna: ~1000 ng/mL
[2]
  antimycin A-induced mROS in the presence of compound: significantly reduced
  mROS levels: decreased mROS concentrations; also recorded: significantly reduced mROS
[17]
  early apoptotic cells (CaspACE FITC-VAD-FMK positive, propidium iodide negative): Only a few apoptotic cells
[18]
  disease symptom development: Symptom development was inhibited
  protection at high concentrations: does not fully suppress; also recorded: did not fully suppress infection
[19]
  protection at high concentrations: does not fully suppress; also recorded: did not fully suppress infection
  disease symptom development: Symptom development was inhibited
[20]
  peroxide production / DAB reaction (plant defence): slight peroxide production
[21]
  chlorosis or necrosis (phytotoxicity): none of the SACCs induced chlorosis or necrosis
[22]
  chlorosis or necrosis (phytotoxicity): none of the SACCs induced chlorosis or necrosis
[23]; C109 fibroblasts
  effect on mitochondrial membrane potential: modest effect

## CCCCCCCCCCCC[N+](CC)(CC)CC [C12-TEA+, dodecyltriethylammonium]
[1]
  EC50 on Z. tritici (mitochondrial fragmentation): 2.38 µg/mL

## CCCCCCCCCCCC[N+](C)(C)C [C12-TMA+, dodecyltrimethylammonium]
[1]
  EC50 on Z. tritici (mitochondrial fragmentation): 3.85 µg/mL

## CCCCCCCCCCCC[P+](c1ccccc1)(c1ccccc1)c1ccccc1 [C12-TPP+, dodecyltriphenylphosphonium]
[1]
  EC50 on Z. tritici (mitochondrial fragmentation): 6.63 µg/mL
[11]
  mitochondrial depolarisation / inhibition of mitochondrial respiration: showed significant inhibition of mitochondrial respiration
[14]; C109 fibroblasts
  EC, human mitochondrial organization: 5.62 µg/mL
[14]; C109 fibroblasts, various concentrations
  effect on human mitochondrial organization: little effect on human mitochondrial organization
[23]; C109 fibroblasts
  EC50, human mitochondrial respiration: 0.355 µg/mL

## C=C(C)[C@H]1Cc2c(ccc3c2O[C@@H]2COc4cc(OC)c(OC)cc4[C@@H]2C3=O)O1 [rotenone]
[2]
  mROS levels: decreased mROS levels
  more effective in decreasing mROS than C12-G+ and C18-TMA+: 3-4 times

## O=C(O)c1ccccc1O [salicylic acid]
[20]
  peroxide production / DAB reaction (plant defence): brown colouring

## antimycin A
[2]
  mROS levels: increase of mROS

## octadecyldimethylsulfonium [C18-DMS+]
[5]; 12-14 h exposure, 10 μg/ml
  killing (LIVE/DEAD staining): efficiently killed
[24]
  killing (LIVE/DEAD staining): efficiently killed
  relative toxicity in C. albicans: most toxic
[25]
  killing (LIVE/DEAD staining): efficiently killed
[1]
  EC50 on Z. tritici (mitochondrial fragmentation): 1.72 µg/mL
[11]
  mitochondrial depolarisation / inhibition of mitochondrial respiration: showed significant inhibition of mitochondrial respiration
[26]
  mitochondrial potential: reduce the mitochondrial potential
[27]
  mitochondrial potential: reduce the mitochondrial potential
[14]; printed as compared to C12-G+
  human mitochondria less sensitive (mitochondrial morphology): ~29 times
[15]
  mitochondrial potential (TMRM) in Daphnia magna: little or no effect on mitochondrial potential
  motility of Daphnia magna: did not affect the motility
[16]; at ~1 μg/ml
  effect on Daphnia magna: little effect at this concentration
[2]
  mROS levels: significantly induced; also recorded: induced mROS production further
  mROS levels with complex I inhibitor rotenone: did not increase mROS levels
[28]
  mROS levels: significantly induced
[29]
  mROS levels: significantly induced
[30]
  mROS levels: significantly induced
[17]
  early apoptotic cells (CaspACE FITC-VAD-FMK positive, propidium iodide negative): significant increase in early apoptotic cells
[31]
  Annexin-V-fluorescein membrane-associated fluorescence in apoptotic cells: only found in C18-DMS+-treated cells
[18]
  disease symptom development: Symptom development was inhibited
  protection at high concentrations: almost abolished symptom developments
[19]
  protection at high concentrations: almost abolished symptom developments
  disease symptom development: Symptom development was inhibited
[20]
  peroxide production / DAB reaction (plant defence): much stronger DAB reaction
[21]
  chlorosis or necrosis (phytotoxicity): none of the SACCs induced chlorosis or necrosis
[22]
  chlorosis or necrosis (phytotoxicity): none of the SACCs induced chlorosis or necrosis
[23]; Z. tritici vs human cells
  higher specificity for fungi than for humans (inhibition of mitochondrial respiration): ~53 times
